For nine molecules, mutagenic call results are on record in PubChem BioAssay AID1259407 (Chemical Carcinogenesis Research Information System (CCRIS), 2018).

Calls of active or inactive are those of the source. How the calls were made is not given here.

The subject of the data set is CCRIS mutagenicity, Ames/micronucleus/aberration tests. Put plainly: CCRIS mutagenicity studies.
Setting [1] is: Test System: AMES SALMONELLA TYPHIMURIUM, Strain/Indicator: TA98, Metabolic Activation: NONE, Method: PREINCUBATION
The mark [2] stands for this setting: Test System: AMES SALMONELLA TYPHIMURIUM, Strain/Indicator: TA100, Metabolic Activation: NONE, Method: PREINCUBATION
[3] abbreviates: Test System: AMES SALMONELLA TYPHIMURIUM, Strain/Indicator: TA1535, Metabolic Activation: NONE, Method: PREINCUBATION
Where [4] appears, read: Test System: AMES SALMONELLA TYPHIMURIUM, Strain/Indicator: TA1537, Metabolic Activation: NONE, Method: PREINCUBATION
Setting [5] is: Test System: AMES SALMONELLA TYPHIMURIUM, Strain/Indicator: TA98, Metabolic Activation: NONE, Method: STANDARD PLATE.
Setting [6] is: Test System: AMES SALMONELLA TYPHIMURIUM, Strain/Indicator: TA98, Metabolic Activation: RAT, LIVER, S-9, AROCLOR 1254, Method: STANDARD PLATE.
Setting [7] is: Test System: AMES SALMONELLA TYPHIMURIUM, Strain/Indicator: TA100, Metabolic Activation: NONE, Method: STANDARD PLATE.

For the molecule `NC(N)=NC(N)=NCCc1ccccc1`, the mutagenic call is, setting by setting: (End Point: IN VITRO CHROMOSOMAL ABERRATIONS, Test System: CHO CELLS, Metabolic Activation: NONE) “inactive; negative”; (End Point: IN VITRO CHROMOSOMAL ABERRATIONS, Test System: CHO CELLS, Metabolic Activation: RAT, LIVER, S-9, PHENOBARBITAL AND BETA-NAPHTHOFLAVONE) “inactive; negative”; (Test System: AMES SALMONELLA TYPHIMURIUM, Strain/Indicator: TA98, Metabolic Activation: HAMSTER, LIVER, S-9, AROCLOR 1254 (10%), Method: PREINCUBATION) “inactive; negative”; under setting [1], “inactive; negative”; (Test System: AMES SALMONELLA TYPHIMURIUM, Strain/Indicator: TA98, Metabolic Activation: RAT, LIVER, S-9, AROCLOR 1254 (10%), Method: PREINCUBATION) “inactive; negative”; (Test System: AMES SALMONELLA TYPHIMURIUM, Strain/Indicator: TA100, Metabolic Activation: HAMSTER, LIVER, S-9, AROCLOR 1254 (10%), Method: PREINCUBATION) “inactive; negative”. The mutagenic call is “inactive; negative” under setting [2]; “inactive; negative” (Test System: AMES SALMONELLA TYPHIMURIUM, Strain/Indicator: TA100, Metabolic Activation: RAT, LIVER, S-9, AROCLOR 1254 (10%), Method: PREINCUBATION); “inactive; negative” (Test System: AMES SALMONELLA TYPHIMURIUM, Strain/Indicator: TA1535, Metabolic Activation: HAMSTER, LIVER, S-9, AROCLOR 1254 (10%), Method: PREINCUBATION); “inactive; negative” under setting [3]; “inactive; negative” (Test System: AMES SALMONELLA TYPHIMURIUM, Strain/Indicator: TA1535, Metabolic Activation: RAT, LIVER, S-9, AROCLOR 1254 (10%), Method: PREINCUBATION); “inactive; negative” (Test System: AMES SALMONELLA TYPHIMURIUM, Strain/Indicator: TA1537, Metabolic Activation: HAMSTER, LIVER, S-9, AROCLOR 1254 (10%), Method: PREINCUBATION). For the same molecule, the mutagenic call is “inactive; negative” under setting [4] and “inactive; negative” (Test System: AMES SALMONELLA TYPHIMURIUM, Strain/Indicator: TA1537, Metabolic Activation: RAT, LIVER, S-9, AROCLOR 1254 (10%), Method: PREINCUBATION).

With `c1cc2ccc3ccnc4ccc(c1)c2c34`, the mutagenic call reads like this: under setting [5], “active; positive”; under setting [6], “active; positive”; under setting [7], “inactive; negative”; (Test System: AMES SALMONELLA TYPHIMURIUM, Strain/Indicator: TA100, Metabolic Activation: RAT, LIVER, S-9, AROCLOR 1254, Method: STANDARD PLATE) “active; positive”.

`CC(C)COS(C)(=O)=O`: the mutagenic call (End Point: IN VITRO MICRONUCLEUS, Test System: MOUSE LYMPHOMA L5178Y CELLS, Metabolic Activation: NONE) is “inactive; negative; significant increase at highly/excessively cytotoxic doses”; the mutagenic call (End Point: IN VITRO MICRONUCLEUS, Test System: MOUSE LYMPHOMA L5178Y CELLS, Metabolic Activation: RAT, LIVER, S-9) was “inactive; negative”; the mutagenic call under setting [7] is “active; positive”; the mutagenic call (Test System: AMES SALMONELLA TYPHIMURIUM, Strain/Indicator: TA100, Metabolic Activation: RAT, LIVER, S-9, Method: STANDARD PLATE) was “active; positive”.

Turning to `COc1ccc2c3c(cccc13)C(=O)N(C)C2=O`, the mutagenic call reads like this: under setting [1], “inactive; negative”; (Test System: AMES SALMONELLA TYPHIMURIUM, Strain/Indicator: TA98, Metabolic Activation: S-9, Method: PREINCUBATION) “inactive; negative”; under setting [2], “inactive; negative”; (Test System: AMES SALMONELLA TYPHIMURIUM, Strain/Indicator: TA100, Metabolic Activation: S-9, Method: PREINCUBATION) “inactive; negative”.

In the case of `COC(=O)Nc1nc2ccc(C(=O)c3ccccc3)cc2[nH]1`, the mutagenic call was “inactive; negative” under setting [5], “active; positive” under setting [6] and “inactive; negative” under setting [7].

With `CC[C@H]1OC(=O)[C@H](C)[C@@H](O[C@H]2C[C@@](C)(OC)[C@@H](O)[C@H](C)O2)[C@H](C)[C@@H](O[C@@H]2O[C@H](C)C[C@H](N(C)C)[C@H]2O)[C@](C)(O)C[C@@H](C)/C(=N\OCOCCOC)[C@H](C)[C@@H](O)[C@]1(C)O`, the mutagenic call runs as follows: under setting [1], “inactive; negative”; (Test System: AMES SALMONELLA TYPHIMURIUM, Strain/Indicator: TA98, Metabolic Activation: RAT, LIVER, S-9, PHENOBARBITAL, Method: PREINCUBATION) “inactive; negative”; under setting [2], “inactive; negative”; (Test System: AMES SALMONELLA TYPHIMURIUM, Strain/Indicator: TA100, Metabolic Activation: RAT, LIVER, S-9, PHENOBARBITAL, Method: PREINCUBATION) “inactive; negative”; under setting [3], “inactive; negative”; (Test System: AMES SALMONELLA TYPHIMURIUM, Strain/Indicator: TA1535, Metabolic Activation: RAT, LIVER, S-9, PHENOBARBITAL, Method: PREINCUBATION) “inactive; negative”. For the same molecule, the mutagenic call reads like this: under setting [4], “inactive; negative”; (Test System: AMES SALMONELLA TYPHIMURIUM, Strain/Indicator: TA1537, Metabolic Activation: RAT, LIVER, S-9, PHENOBARBITAL, Method: PREINCUBATION) “inactive; negative”; (Test System: E. COLI, Strain/Indicator: WP2 UVRA, Metabolic Activation: NONE, Method: PREINCUBATION) “inactive; negative”; (Test System: E. COLI, Strain/Indicator: WP2 UVRA, Metabolic Activation: RAT, LIVER, S-9, PHENOBARBITAL, Method: PREINCUBATION) “inactive; negative”.

As to `c1ccc2c(c1)-c1c(ccc3ccccc13)[C@H]1N[C@@H]21`, the mutagenic call is, setting by setting: (Test System: AMES SALMONELLA TYPHIMURIUM, Strain/Indicator: TA98, Metabolic Activation: NONE, Method: PREINCUBATION (KCL-CONTAINING MEDIUM)) “active; positive”; (Test System: AMES SALMONELLA TYPHIMURIUM, Strain/Indicator: TA98, Metabolic Activation: NONE, Method: PREINCUBATION (KCL-FREE MEDIUM)) “active; positive”; (Test System: AMES SALMONELLA TYPHIMURIUM, Strain/Indicator: TA100, Metabolic Activation: NONE, Method: PREINCUBATION (KCL-CONTAINING MEDIUM)) “active; positive”; (Test System: AMES SALMONELLA TYPHIMURIUM, Strain/Indicator: TA100, Metabolic Activation: NONE, Method: PREINCUBATION (KCL-FREE MEDIUM)) “active; positive”.

With `CC(=O)N(C(C)=O)c1ccc(C)c(N=Nc2ccccc2C)c1`, the mutagenic call is “inactive; negative” (Test System: AMES SALMONELLA TYPHIMURIUM, Strain/Indicator: TA98, Metabolic Activation: NONE, Method: SUSPENSION/PLATE); “inactive; negative” (Test System: AMES SALMONELLA TYPHIMURIUM, Strain/Indicator: TA98, Metabolic Activation: RAT, LIVER, S-9, PHENOBARBITAL AND 5,6-BENZOFLAVONE, Method: SUSPENSION/PLATE); “inactive; negative” (Test System: AMES SALMONELLA TYPHIMURIUM, Strain/Indicator: TA100, Metabolic Activation: NONE, Method: SUSPENSION/PLATE); “inactive; negative” (Test System: AMES SALMONELLA TYPHIMURIUM, Strain/Indicator: TA100, Metabolic Activation: RAT, LIVER, S-9, PHENOBARBITAL AND 5,6-BENZOFLAVONE, Method: SUSPENSION/PLATE).

Take `[N-]=[N+]=NC[C@H]1O[C@H](O)[C@@H](O)[C@H](O)[C@@H]1O`: the mutagenic call runs as follows: under setting [5], “inactive; negative”; under setting [7], “active; positive”.
